The source made the active and inactive calls. The rule behind the calls is not given here.
How the values were obtained:
[1] = biological target: Mast/stem cell growth factor receptor Kit (Homo sapiens) (UniProt P10721); assay: Inhibition of c-Kit in human PANC1 cells assessed as reduction in Erk phosphorylation at 50 uM; assay type: cell-based
OVCAR-3 [2] = assay: Cytostatic activity against human OVCAR3 cells assessed as reduction in cell proliferation; assay type: functional, cell-based
SF-767 [3] = assay: Cytotoxicity against human SF-767 cells assessed as cell death at 1 uM after 24 hrs by MTS assay; assay type: functional, cell-based
SF-767 [4] = assay: Cytotoxicity against human SF-767 cells assessed as cell death at 1 uM in presence of […] ionizing radiation after 24 hrs by MTS assay; assay type: functional, cell-based
MIA PaCa-2 [5] = assay: Antitumor activity against human MIAPaCa2 cells xenografted in athymic nude mouse assessed as reduction in tumor growth at 2.5 to 5 mg/kg, iv administered every 3 days for 28 days; assay type: functional, organism-based
TT = assay: Antitumor activity against human TT cells xenografted in ip dosed athymic nude mouse assessed as reduction in tumor growth administered as qd for 2 weeks; assay type: functional, organism-based
SBcl2 = assay: Antitumor activity against human SBcl2 cells xenografted in ip dosed athymic nude mouse assessed as reduction in tumor growth administered as qd for 5 days; assay type: functional, organism-based
MIA PaCa-2 [6] = assay: Antitumor activity against human MIAPaCa2 cells xenografted in athymic nude mouse assessed as reduction in tumor growth at 5 mg/kg, iv administered every 7 days for 28 days; assay type: functional, organism-based
OVCAR-3 [7] = assay: Antitumor activity against human OVCAR3 cells xenografted in po dosed athymic nude mouse assessed as reduction in tumor growth administered as qd for 28 days; assay type: functional, organism-based
A549 [8] = assay: Antitumor activity against human A549 cells xenografted in athymic nude mouse assessed as reduction in tumor growth at 50 mg/kg, po qd administered for 21 days in presence of 30 mg/kg carboplatin; assay type: functional, organism-based
A549 [9] = assay: Antitumor activity against human A549 cells xenografted in athymic nude mouse assessed as reduction in tumor growth at 50 mg/kg, po qd administered for 21 days in presence of 30 mg/kg carboplatin/ 20 mg/kg taxol; assay type: functional, organism-based
A549 [10] = assay: Suppression of Rad51 expression in human A549 cells at 0.71 to 3.82 uM after 24 hrs by probing blot analysis; assay type: functional, cell-based
HT-29 [11] = assay: Suppression of cisplatin-induced Rad51 expression in human HT-29 cells xenografted in in-vivo model by Western blot analysis; assay type: functional, cell-based
HT-29 [12] = assay: Suppression of ionizing radiation-induced Rad51 expression in human HT-29 cells pretreated with compound followed by ionizing radiation by Western blot analysis; assay type: functional, cell-based
Canis familiaris = assay: In vivo inhibition of Rad51 expression in po dosed Beagle dog skin administered daily for 28 days measured post last dose by immunohistochemistry staining based assay; assay type: functional, organism-based; settings: Canis lupus familiaris

Chain of Mast/stem cell growth factor receptor Kit (Homo sapiens) (P10721 whole entry): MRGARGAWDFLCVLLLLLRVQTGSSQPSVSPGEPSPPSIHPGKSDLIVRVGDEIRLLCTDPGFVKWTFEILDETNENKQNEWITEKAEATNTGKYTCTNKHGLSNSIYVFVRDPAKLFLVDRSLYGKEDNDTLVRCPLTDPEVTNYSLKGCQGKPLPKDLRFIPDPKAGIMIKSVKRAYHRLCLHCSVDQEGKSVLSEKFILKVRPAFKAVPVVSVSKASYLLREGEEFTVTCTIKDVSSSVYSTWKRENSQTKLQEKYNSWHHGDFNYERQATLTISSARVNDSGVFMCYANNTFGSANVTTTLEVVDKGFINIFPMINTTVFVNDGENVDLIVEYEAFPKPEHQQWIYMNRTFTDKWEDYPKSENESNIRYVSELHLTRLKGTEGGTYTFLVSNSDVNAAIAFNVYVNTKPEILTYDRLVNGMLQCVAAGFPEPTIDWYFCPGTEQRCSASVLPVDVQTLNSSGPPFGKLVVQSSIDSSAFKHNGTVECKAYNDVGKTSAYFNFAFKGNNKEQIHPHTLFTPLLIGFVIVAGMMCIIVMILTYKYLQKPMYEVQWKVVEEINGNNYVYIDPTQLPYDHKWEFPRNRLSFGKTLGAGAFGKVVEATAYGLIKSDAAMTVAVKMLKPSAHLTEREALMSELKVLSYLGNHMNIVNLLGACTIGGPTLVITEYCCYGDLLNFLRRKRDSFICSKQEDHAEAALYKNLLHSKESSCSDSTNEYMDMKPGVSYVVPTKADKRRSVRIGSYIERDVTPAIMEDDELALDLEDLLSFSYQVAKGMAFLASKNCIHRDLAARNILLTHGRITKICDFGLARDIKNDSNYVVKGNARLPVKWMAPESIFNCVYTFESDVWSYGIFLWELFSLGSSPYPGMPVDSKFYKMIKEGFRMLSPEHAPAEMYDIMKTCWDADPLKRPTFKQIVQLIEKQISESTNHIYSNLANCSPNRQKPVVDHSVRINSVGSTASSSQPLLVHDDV

Row | SMILES | inhibition [1] | Activity (OVCAR-3 [2]) | Activity (SF-767 [3]) | Activity (SF-767 [4]) | Activity (MIA PaCa-2 [5]) | Activity (TT) | Activity (SBcl2) | Activity (MIA PaCa-2 [6]) | Activity (OVCAR-3 [7]) | Activity (A549 [8]) | Activity (A549 [9]) | Activity (A549 [10]) | inhibition (HT-29 [11]) | inhibition (HT-29 [12]) | inhibition (Canis familiaris)
1 | COc1cccc(-c2cc(=O)c3ccccc3o2)c1N | Active | – | – | – | – | – | – | – | – | – | – | – | – | – | –
2 | S=C(NCc1ccc2c(c1)OCO2)N1CCN(c2ncnc3c2oc2ccccc23)CC1 | Active | Active | Active | Active | Active | Dose-dependent effect | Active | Active | Dose-dependent effect | Active | Active | inactive | Active | Active | Dose-dependent effect

Source: ChEMBL document CHEMBL3991943, “Pharmaceutical formulations comprising salts of a protein kinase inhibitor and methods of using same” (2013)
